From patent US9328130B2, “Method of treating organism by biologically active compounds specifically delivered into mitochondria, pharmaceutical composition required for the use of the method and a compound applicable for this purpose” (MITOTECH S.A., priority 2005, dated 2016)

Assays:
OXYS rats = experiment: Cataract and macular dystrophy in senescence-accelerated OXYS rats; format: in vivo, rat
Description: The animals were housed in cages (45*35*35 cm) and kept under standard laboratory conditions (at 22±1° C., 60% relative humidity, and natural light), provided with a standard rodent diet (PK-120-1, Ltd. ‘Laboratorsnab’, Russia), and given water ad libitum. At the age of 1.5 months after preliminary pupil dilation with 1% tropicamide ophthalmic the rats were conducted through ophthalmoscopic examination using direct ophthalmoscop “Betta”, Germany. […] We use Vitamin E for a comparison with test antioxidants. Animals received the compounds on a small piece of dried bread before a regular meal, and the control group of animals received the same piece of bread without any compound. After completing the course of antioxidants the animals were retested with ophthalmoscope. To avoid human factor in the evaluation of compound effects the researcher who conducted the ophthalmoscopic examination was not told which of the animals received antioxidants. The lens state was evaluated according to the classification system accepted in clinical practice with grades ranging from 0 to 3: score 0—the lens is clear; score 1—spotted weak cloudiness; score 2—multiple spots of cloudiness and score 3—intense cloudiness of the lens core and nucleus.

Yarrowia lipolytica = experiment: Protection of yeast cells from death caused by hydrogen peroxide; format: cell-based
Plants cuttings = experiment: Development of higher plants under darkness stress; format: in vivo
Description: Plants cuttings were grown at the artificial agarized medium MS supplemented with 1 μM SkQ1 (3 plants) and with no addition of SkQ1 as a control (3 plants). Cuttings were placed into 50 ml transparent tubes and grown in climate chamber for 3 weeks at 27° C. and periodical illumination (14 h of light, 10 h of darkness). Then the plants were subjected to darkness stress, i.e. were grown in complete darkness for 7 days.

[1] = OXYS rats age 3 months after oral course

CC1=C(C)C(=O)C(CCCCCCCCCC[P+](c2ccccc2)(c2ccccc2)c2ccccc2)=CC1=O.[Br-] [SkQ1, 2,3-dimethyl-1,4-benzoquinon-5-decyl-triphenylphosphonium bromide]
2nd stage of cataract (OXYS rats; [1]): all of them were defined as the 1st stage of cataract | 2nd stage of macular degeneration (OXYS rats; [1]): also were defined as the 1st stage of macular degeneration | changes in the macular area of the retina (OXYS rats; [1]): 38% | eyes with lens changes (OXYS rats; OXYS rats age 3 months after oral course from 1.5 to 3 months): 46% | concentration as effective as 25 μM α-tocopherol (Yarrowia lipolytica): 10 -fold lower | death of cells caused by hydrogen peroxide (Yarrowia lipolytica; 10 mM hydrogen peroxide): partially prevents the death | effect on survival compared among protectants (Yarrowia lipolytica; FIG. 14, α-tocopherol 25 μM): very similar | colour of plants after darkness stress (Plants cuttings; 1 μM in MS medium, 7 days complete darkness): retained their green color | plant size in comparison to control plants (Plants cuttings; 1 μM, additional 20 days normal lighting): more than 3 times
